Experimental findings from patent US12655116B2, “Substituted isophthalic acid diamides” (Bayer Aktiengesellschaft, priority 2020, dated 2026) are described below.

This experiment deals with harmful plants. Kind of experiment: Comparative experiments: herbicidal pre-emergence action versus compounds known from D1 (WO 2012/028579 A1). The class given is in vivo. Also on record: key to Herbicidal action against ALOMY / Herbicidal action against AVEFA / Herbicidal action against SETVI / Herbicidal action against AMARE / Herbicidal action against STEME / Herbicidal action against VIOTR / Herbicidal action against HORMU / Herbicidal action against MATIN / Herbicidal action against ABUTH: % herbicidal activity: 0 = like control, 100 = plants died. The text has this: Seeds of monocotyledonous and dicotyledonous weed plants and crop plants are laid out in sandy loam soil in wood-fiber pots and covered with soil. The compounds of the invention, formulated in the form of wettable powders (WP) or as emulsion concentrates (EC), are then applied to the surface of the covering soil in the form of an aqueous suspension or emulsion at a water application rate equivalent to 600 to 800 l/ha, with addition of 0.2% wetting agent. After the treatment, the pots are placed in a greenhouse and kept under good growth conditions for the trial plants. The damage to the test plants is scored visually after a test period of 3 weeks by comparison with untreated controls (herbicidal activity in percent (%): 100% activity=the plants have died, 0% activity=like control plants). […] The tables below illustrate, in an illustrative manner, the post-emergence herbicidal action of the compounds of the invention, the herbicidal activity being stated in percent. In the experiments that follow, herbicidal action of numerous inventive compounds and the structurally closest compounds known from D1 (WO 2012/028579 A1) were compared under the above-specified conditions by the pre-emergence and post-emergence method. The example numbers given in the tables relate to the compounds disclosed in the respective documents.

As for `CNC(=O)c1c(C(F)(F)F)ccc(C(=O)Nc2nnnn2C)c1Cl` [Example 1-129], where the note is “20 g a.i./ha”, the “Herbicidal action against ABUTH” value is given as 100, the “Herbicidal action against AMARE” value turned out to be 100, the “Herbicidal action against AVEFA” value stood at 100 and the “Herbicidal action against MATIN” value is 100. Under “20 g a.i./ha”, the “Herbicidal action against STEME” value came out at 100 and the “Herbicidal action against VIOTR” value is given as 100. Where the note is “80 g a.i./ha”, the “Herbicidal action against ABUTH” value is listed as 100, the “Herbicidal action against ALOMY” value is recorded as 100, the “Herbicidal action against AVEFA” value came to 100 and the “Herbicidal action against MATIN” value was 100. Where the note is “80 g a.i./ha”, the “Herbicidal action against STEME” value amounted to 100 and the “Herbicidal action against VIOTR” value turned out to be 100.
On to `CNC(=O)c1c(C(F)F)ccc(C(=O)Nc2nnnn2C)c1Cl` [Example 1-147], for which, under “80 g a.i./ha”, the “Herbicidal action against ALOMY” value turned out to be 90, the “Herbicidal action against AMARE” value came out at 100, the “Herbicidal action against AVEFA” value turned out to be 100 and the “Herbicidal action against SETVI” value was found to be 100. Under “80 g a.i./ha”, the “Herbicidal action against STEME” value is given as 100 and the “Herbicidal action against VIOTR” value was determined as 100.
As for `CCn1nnnc1NC(=O)c1ccc(C(F)(F)F)c(C(=O)NC)c1Cl` [Example 2-129], under “20 g a.i./ha”, the “Herbicidal action against ABUTH” value is 100, the “Herbicidal action against AVEFA” value amounted to 100, the “Herbicidal action against MATIN” value came to 100 and the “Herbicidal action against SETVI” value is 100. In addition, the “Herbicidal action against VIOTR” value (20 g a.i./ha) is given as 100. Moreover, the “Herbicidal action against POLCO” value (20 g a.i./ha, POLCO) stood at 100.
Consider `CCn1nnnc1NC(=O)c1ccc(C(F)F)c(C(=O)NC)c1Cl` [Example 2-147], for which, under “80 g a.i./ha”, the “Herbicidal action against ALOMY” value is 90, the “Herbicidal action against AVEFA” value is given as 100, the “Herbicidal action against SETVI” value is listed as 100 and the “Herbicidal action against STEME” value came out at 70. Further, the “Herbicidal action against HORMU” value (80 g a.i./ha, HORMU) stood at 90.
